Read-outs that look alike come from different tables or passages of the source.
Legend:
[1] = system: SARS-CoV-2 isolate EGY/WAT-2 VACCERA; assay: microbe, parasite or virus in culture; assay type: cell-based; conditions: for (API) Antiviral potency index: ratio of the inhibition % of the tested compound to that of Remdesivir at 10 μM, 1 = identical effect; for inhibition at 10 µM: Severe acute respiratory syndrome coronavirus 2, Vero C1008, 10 uM
SARS-CoV-2 Mpro = target: T1, SARS-CoV-2 Mpro (Severe acute respiratory syndrome coronavirus 2, UniProt P0DTD1); assay: SARS-CoV-2 Mpro inhibition assay (BPS Bioscience, FRET peptide); assay type: biochemical
T1 construct: purchased BPS Bioscience

main protease Mpro = system: main protease Mpro; design: method as in PMID 36986562; conditions: read-out: IC50 of main protease Mpro inhibition; cited from earlier work
SARS-CoV-2 [2] = system: SARS-CoV-2; design: method as in PMID 36986562; conditions: 10 µM, Vero 6 cells; cited from earlier work
COVID-19 = system: COVID-19; design: method as in PMID 34914868; conditions: adult patients with mild-to-moderate COVID-19, not hospitalized, phase-3; cited from earlier work
SARS-CoV-2 [3] = system: SARS-CoV-2; design: method as in PMID 34750163; conditions: ritonavir and Nirmatrelvir used in conjunction; cited from earlier work
Vero E6 cells = assay: Cytotoxicity evaluation using MTT viability assay; conditions: Vero E6 cytotoxicity IC50 compared with the antiviral activity maximum concentration (10 mM printed in footnote, 10 uM in text)
[4] = in vitro enzyme assay, read-out: IC50 against SARS-CoV-2 Mpro
[5] = Severe acute respiratory syndrome coronavirus 2, Vero C1008, 1 uM, infected Vero E6 cells, read-out: % of inhibition of SARS CoV-2

Row | Molecule | (API) Antiviral potency index [1] | melting point [°C] | also measured
1 | O=C(O)c1ccc(-n2cc(COc3ccc(/C=N/N4C(=O)c5ccccc5C4=O)cc3)nn2)cc1 [Compound 8b, (E)-4–(4-((4-(((1,3-dioxoisoindolin-2-yl)imino)methyl)phenoxy)methyl)-1H-1,2,3-triazol-1-yl)benzoic acid] | 0.91 | 287 to 288 | 
2 | CC(=O)c1ccc(-n2cc(COc3ccc(/C=N/N4C(=O)c5ccccc5C4=O)cc3)nn2)cc1 [Compound 8h, (E)-2-((4-((1–(4-acetylphenyl)-1H-1,2,3-triazol-4-yl)methoxy)benzylidene)amino)isoindoline-1,3-dione] | 0.96 | 275 to 276 | 
3 | CC(=O)OC[C@@H]1O[C@H](n2cc(COc3ccc(/C=N/N4C(=O)c5ccccc5C4=O)cc3)nn2)[C@@H](OC(C)=O)[C@H](OC(C)=O)[C@H]1OC(C)=O [Compound 10a, (2S,3S,4R,5S,6S)-2-(acetoxymethyl)-6–(4-((4-((E)-((1,3-dioxoisoindolin-2-yl)imino)methyl)phenoxy)methyl)-1H-1,2,3-triazol-1-yl)tetrahydro-2H-pyran-3,4,5-triyl triacetate] | 0.92 | 166 to 167 | IC50 (SARS-CoV-2 Mpro; [4]): 1090 ± 55.5 µM
4 | O=C(Cn1cc(COc2ccc(/C=N/N3C(=O)c4ccccc4C3=O)cc2)nn1)Nc1ccc(F)cc1 [Compound 6e, (E)-2–(4-((4-(((1,3-dioxoisoindolin-2-yl)imino)methyl)phenoxy)methyl)-1H-1,2,3-triazol-1-yl)-N-(4-fluorophenyl) acetamide] | 0.96 | 219 to 220 | 
5 | O=C(Cn1cc(COc2ccc(/C=N/N3C(=O)c4ccccc4C3=O)cc2)nn1)Nc1ccc(C(=O)O)cc1 [Compound 6a, (E)-4–(2-(4-((4-(((1,3-dioxoisoindolin-2-yl)imino)methyl)phenoxy)methyl)-1H-1,2,3-triazol-1-yl)acetamido)benzoic acid] | 0.98 | 264 to 265 | % of inhibition of SARS CoV-2 ([1]; 10 uM, infected Vero E6 cells): 94.96%; inhibition at 0.01 µM ([1]; Severe acute respiratory syndrome coronavirus 2, Vero C1008, 0.01 uM): ~40%; inhibition at 1 µM [1, 5]: 87.8%; inhibition at 10 µM ([1]; infected Vero E6 cells): 94%; EC50 ([1]; Severe acute respiratory syndrome coronavirus 2, Vero C1008, dose-response at five concentrations starting from 10 uM, read-out: EC50 of virus inhibition): 0.038 µM; IC50 (SARS-CoV-2 Mpro; [4]): 113 ± 5.75 µM
6 | CC1=NN(c2ccc(Cl)cc2)C(=O)/C1=C\c1ccc(OCc2cn(CC(=O)Nc3ccc(C(=O)O)cc3)nn2)cc1 [Compound 11] |  |  | IC50 (main protease Mpro): 3.16 ± 1.2 µM; inhibition of SARS-CoV-2 growth (SARS-CoV-2 [2]): 63.39 ± 0.48%
7 | O=C(Cn1cc(COc2ccc(/C=N/N3C(=O)c4ccccc4C3=O)cc2)nn1)Nc1ccccc1I [Compound 6b, (E)-2–(4-((4-(((1,3-dioxoisoindolin-2-yl)imino)methyl)phenoxy)methyl)-1H-1,2,3-triazol-1-yl)-N-(2-iodophenyl) acetamide] | 0.97 | 213 to 214 | 
8 | O=C(Cn1cc(COc2ccc(/C=N/N3C(=O)c4ccccc4C3=O)cc2)nn1)Nc1ccc(I)cc1F [Compound 6c, (E)-2–(4-((4-(((1,3-dioxoisoindolin-2-yl)imino)methyl)phenoxy)methyl)-1H-1,2,3-triazol-1-yl)-N-(2-fluoro-4-iodophenyl)acetamide] | 0.96 | 228 to 229 | 
9 | CC(=O)OC[C@@H]1O[C@H](n2cc(COc3ccc(/C=N/N4C(=O)c5ccccc5C4=O)cc3)nn2)[C@@H](OC(C)=O)[C@H](OC(C)=O)[C@@H]1OC(C)=O [Compound 10b, (2S,3R,4R,5S,6S)-2-(acetoxymethyl)-6–(4-((4-((E)-((1,3-dioxoisoindolin-2-yl)imino)methyl)phenoxy)methyl)-1H-1,2,3-triazol-1-yl)tetrahydro-2H-pyran-3,4,5-triyl triacetate] | 0.90 |  | 
10 | Cc1ccc(CNC(=O)Cn2cc(COc3ccc(/C=N/N4C(=O)c5ccccc5C4=O)cc3)nn2)cc1 [Compound 6f, (E)-2–(4-((4-(((1,3-dioxoisoindolin-2-yl)imino)methyl)phenoxy)methyl)-1H-1,2,3-triazol-1-yl)-N-(4-methylbenzyl) acetamide] | 0.92 | 201 to 202 | 
11 | O=C1c2ccccc2C(=O)N1/N=C/c1ccc(OCc2cn(-c3ccc(Cl)c(Cl)c3)nn2)cc1 [Compound 8g, (E)-2-((4-((1–(3,4-dichlorophenyl)-1H-1,2,3-triazol-4-yl)methoxy)benzylidene)amino)isoindoline-1,3-dione] | 0.96 |  | 
12 | CC(C)C(=O)OC[C@H]1O[C@@H](n2ccc(NO)nc2=O)[C@H](O)[C@@H]1O [Moldupiravir] |  |  | reduction of the risk of death or hospitalisation (COVID-19): 30%
13 | CC(C)(C)[C@H](NC(=O)C(F)(F)F)C(=O)N1C[C@H]2[C@@H]([C@H]1C(=O)N[C@H](C#N)C[C@@H]1CCNC1=O)C2(C)C [Nirmatrelvir] |  |  | decrease in hospitalisation or mortality (SARS-CoV-2 [3]): 89%
14 | CCC(CC)COC(=O)[C@H](C)N[P@](=O)(OC[C@H]1O[C@@](C#N)(c2ccc3c(N)ncnn23)[C@H](O)[C@@H]1O)Oc1ccccc1 [Remdesivir, reference compound] |  |  | CT/A Cytotoxicity/activity parameter (Vero E6 cells): 4.31; inhibition at 1 µM ([1]; Severe acute respiratory syndrome coronavirus 2, Vero C1008, read-out: % of inhibition of SARS CoV-2): 92.7%; EC50 ([1]; Severe acute respiratory syndrome coronavirus 2, Vero C1008, read-out: EC50 of virus inhibition): 0.029 µM
15 | O=C1c2ccccc2C(=O)N1/N=C/c1ccc(OCc2cn(-c3ccc(F)cc3)nn2)cc1 [Compound 8a, (E)-2-((4-((1–(4-fluorophenyl)-1H-1,2,3-triazol-4-yl)methoxy)benzylidene)amino) isoindoline-1,3-dione] | 0.96 | 238 to 239 | 
16 | O=C(Cn1cc(COc2ccc(/C=N/N3C(=O)c4ccccc4C3=O)cc2)nn1)Nc1ccc([N+](=O)[O-])cc1 [Compound 6d, (E)-2–(4-((4-(((1,3-dioxoisoindolin-2-yl)imino)methyl)phenoxy)methyl)-1H-1,2,3-triazol-1-yl)-N-(4-nitrophenyl)acetamide] | 0.98 | 242 to 243 | 
17 | O=C(Cn1cc(COc2ccc(/C=N/N3C(=O)c4ccccc4C3=O)cc2)nn1)NCc1ccc(Cl)cc1 [Compound 6h, (E)-N-(4-chlorobenzyl)-2–(4-((4-(((1,3-dioxoisoindolin-2-yl)imino)methyl)phenoxy)methyl)-1H-1,2,3-triazol-1-yl)acetamide] | 0.95 | 208 to 209 | 
18 | O=C(Cn1cc(COc2ccc(/C=N/N3C(=O)c4ccccc4C3=O)cc2)nn1)NCc1ccc(F)cc1 [Compound 6g, (E)-2–(4-((4-(((1,3-dioxoisoindolin-2-yl)imino)methyl)phenoxy)methyl)-1H-1,2,3-triazol-1-yl)-N-(4-fluorobenzyl) acetamide] | 0.97 |  | inhibition at 10 µM ([1]; infected Vero E6 cells): 94%; IC50 (SARS-CoV-2 Mpro; [4]): 90.1 ± 4.59 µM
19 | O=C1c2ccccc2C(=O)N1/N=C/c1ccc(OCc2cn(-c3ccccc3F)nn2)cc1 [Compound 8e, (E)-2-((4-((1–(2-fluorophenyl)-1H-1,2,3-triazol-4-yl)methoxy)benzylidene)amino)isoindoline-1,3-dione] | 0.98 | 248 to 249 | inhibition at 1 µM [1, 5]: 83.6%
20 | (E)-2-((4-((1–(4-nitrophenyl)-1H-1,2,3-triazol-4-yl)methoxy)benzylidene)amino)isoindoline-1,3-dione [Compound 8c] | 0.96 |  | CT/A Cytotoxicity/activity parameter (Vero E6 cells): 8.62
21 | (E)-2-((4-((1–(3-fluoro-4-methylphenyl)-1H-1,2,3-triazol-4-yl)methoxy)benzylidene)amino) Isoindoline-1,3-dione [Compound 8d] | 0.92 |  | 
22 | Cc1cccc(C)c1OCC(=O)N[C@@H](Cc1ccccc1)[C@@H](O)C[C@H](Cc1ccccc1)NC(=O)[C@H](C(C)C)N1CCCNC1=O [Lopinavir, reference compound] |  |  | IC50 (SARS-CoV-2 Mpro): 149 ± 7.48 µM
23 | CCOC(=O)c1ccc(-n2cc(COc3ccc(/C=N/N4C(=O)c5ccccc5C4=O)cc3)nn2)cc1 [Compound 8f, ethyl (E)-4–(4-((4-(((1,3-dioxoisoindolin-2-yl)imino)methyl)phenoxy)methyl)-1H-1,2,3-triazol-1-yl)benzoate] | 0.91 | 224 to 225 | 

Reference: PMC11164105, “Exploring of N-phthalimide-linked 1,2,3-triazole analogues with promising -anti-SARS-CoV-2 activity: synthesis, biological screening, and molecular modelling studies” (Journal of Enzyme Inhibition and Medicinal Chemistry, 2024)
